pIC50: −log10 of the molar value. Where “and” joins values, the source holds several entries; their conditions need not be identical. Equal values may be shown once. Where no end group is shown, it is not given here.
Legend:
[1] = test system: Tfh-dependent B cell activation; assay: Tfh-dependent B-cell maturation co-culture (memory B cells with SEB-stimulated Tfh cells, s-CD95L); format: cell-based; conditions: preincubation of Tfh cells
[2] = test system: CD95-mediated Ca2+ signaling pathway in Tfh cells; assay: CD95-mediated Ca2+ response in Tfh cells; format: cell-based, human; conditions: Example 2; signal described for Th17 and circulating Tfh cells
CD95/FADD interaction = target: T1, CD95/FADD interaction (Homo sapiens, UniProt P25445+Q13158); assay: Renilla luciferase protein-fragment complementation assay (PCA), CD95-DD/FADD-DD; format: cell-based; conditions: result in words; selectivity control
T1 construct: DD-CD95 (aa 210-303) fused to F2; the death domain of FADD (aa 80-210) (D) fused to F1; expressed in transfected cells; host or cells: HEK293T
T1 sequence (P25445 226-319): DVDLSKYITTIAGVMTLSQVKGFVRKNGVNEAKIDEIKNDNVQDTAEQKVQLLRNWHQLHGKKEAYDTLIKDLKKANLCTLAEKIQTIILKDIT
T1 sequence (Q13158 80-208): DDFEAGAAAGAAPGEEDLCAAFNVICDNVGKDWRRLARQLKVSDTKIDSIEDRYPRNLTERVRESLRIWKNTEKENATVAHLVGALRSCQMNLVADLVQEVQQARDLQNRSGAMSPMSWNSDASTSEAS
From the text: FIG. 1. Identification of chemical leads from the Prestwick library inhibiting the CD95/PLCγ1 interaction. A. Schematic representation of the protein-fragment complementation assay used with CD95-CID or -DD fused to F2 and PLCγ1-SH3 or FADD-DD fused to F1 to identify inhibitors from the Prestwick library. The Renilla luciferase enzyme was divided into amino-terminal and carboxy-terminal fragments (yellow domains) and fused to the indicated domains. B. Compounds from the Prestwick library were tested against CD95/PLCγ1 or CD95/FADD PCA. This library allowed us to select 34 hits based on their ability to inhibit CD95/PLCγ1 interaction (≥70% of signal inhibition) without altering CD95/FADD binding (ratio (CD95/PLCγ1 inhibition/CD95/FADD inhibition) ≥2). […] Inhibition of CD95/FADD interaction is also assessed.
A. CID-CD95 (aa 175-210) or DD-CD95 (aa 210-303) fused to F2 were co-transfected into HEK cells with the indicated domains of PLCγ1 (Ca^2+ response) or FADD (apoptosis) fused to F1. […] The inhibition of light emission for the indicated PPIs was assessed in cells incubated for the indicated times in the presence of TAT-CID (25 μM). […] Then, the indicated peptides fused with or without the cell-penetrating domain TAT were incubated at the indicated concentrations for 4 hrs and luminescence was assessed. […]

[3] = test system: lupus-prone mice (MRL Lpr/+); conditions: repeated injections; cited from earlier work
CD95/PLCγ1 interaction = target: T2, CD95/PLCγ1 interaction (Homo sapiens, UniProt P19174); assay: Renilla luciferase protein-fragment complementation assay (PCA), CD95-CID/PLCγ1-SH3; format: cell-based; conditions: PCA in HEK cells
T2 construct: The PLCγ1-SH3 domain (aa 790-851) (C); expressed in transfected cells; host or cells: HEK293T
T2 sequence (P19174 790-851): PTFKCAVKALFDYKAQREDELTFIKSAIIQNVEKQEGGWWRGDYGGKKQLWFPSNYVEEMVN
Method: FIG. 1. […] A. Schematic representation of the protein-fragment complementation assay used with CD95-CID or -DD fused to F2 and PLCγ1-SH3 or FADD-DD fused to F1 to identify inhibitors from the Prestwick library. The Renilla luciferase enzyme was divided into amino-terminal and carboxy-terminal fragments (yellow domains) and fused to the indicated domains. B. Compounds from the Prestwick library were tested against CD95/PLCγ1 or CD95/FADD PCA. […] Inhibition of CD95/FADD interaction is also assessed.
Light emission indicates refolding of the luciferase and reconstitution of enzyme activity through protein/protein interactions. […] Data represent means±SD of three independent experiments. […] Then, the indicated peptides fused with or without the cell-penetrating domain TAT were incubated at the indicated concentrations for 4 hrs and luminescence was assessed. Data represent means±SD of three independent experiments. […].
HEK293T cells were electroporated with 5 μg of DNA using BTM-830 electroporation generator (BTX Instrument Division, Harvard Apparatus) with 10 μg of DNA. Transfected cells were cultured for 24 hrs prior to protein complementation assay analyses as previously described (17). Briefly, transfected cells (10^6) were washed, resuspended in 100 μl PBS and deposited in OptiPlate-96 (PerkinElmer, Waltham, Mass., USA). Coelenterazine-h (5 μM, Sigma) was injected to each well and renilla luciferase activity was monitored for the first 10 seconds using Infinite200Pro (Tecan, Männedorf, Switzerland).
A peptide consisting of the cell-penetrating domain of TAT fused to CID (TAT-CID) binds the SH3 domain of PLCγ1 and thereby, prevents PLCγ1/CD95 interaction and the subsequent induction of the Ca^2+ response (16). […] Briefly, the Renilla luciferase enzyme was divided into two fragments (F1 and F2 fragments). […] Interaction of CD95 with PLCγ1 or FADD allows the reconstitution of RLuc and subsequent light emission (FIG. 1A). The chemical Prestwick library was screened against these PCAs (FIG. 1B). […] These molecules are designated CID inhibitors or CIDINH.

## TAT-CID: peptide consisting of the CID (CD95 amino acids 175 to 210) conjugated to the cell-penetrating domain of TAT (KRKEVQKTCRKHRKENQGSHESPTLNPETVAINLSD; not fully specified (N-terminus); also: conjugated to TAT cell-penetrating domain, site not given here)
[1]
  effect on Tfh-dependent B cell activation: blocks
[2]
  effect on sCD95L-induced Ca2+ response: abrogated
CD95/FADD interaction
  effect on CD95/FADD interaction: failed to alter
[3]
  effect on clinical symptoms: alleviate clinical symptoms
  effect on endothelial transmigration of Th17 cells in vivo: block
CD95/PLCγ1 interaction; peptides incubated for 4 hours, read-out: IC50, disruption of CD95/PLCγ1 interaction by peptides
  pIC50: 4.97 and 4.94
CD95/PLCγ1 interaction; TAT-CID 25 μM
  time course of inhibition of CD95/PLCγ1: increased in a time dependent manner
